Results reported in patent US12385042B2, “Cell-penetrating peptides” (VECTIOPEP OÜ, priority 2019, dated 2025).
Where a SMILES comes first, the peptide text is derived from it. Bridges are numbered along the chain shown (N, C = ends). Roman numbers before positions name the chains, in order. [ ]: non-standard residue; d: D form. The star is where a group is joined. Arachidoyl = CCCCCCCCCCCCCCCCCCCC(=O)*; Stearoyl = CCCCCCCCCCCCCCCCCC(=O)*; Orn = NCCC[C@H](N)C(=O)O

Assays:
U87 cells = test: MTS toxicity assay; type: cell-based, human
Method: Cell proliferation was determined with the CellTiter 96® Aqueous Non-Radioactive Cell Proliferation Assay (MTS) (Promega Biotech AB, Sweden) according to the manufacturer's instructions. For this 1×10^5 U87 cells were seeded 1 day prior to experiment on transparent 96-well plates. On experiment day, media was replaced with 90 ul of fresh media and to the cells complexes formed at MR30 (both with 25 nM and 100 nM final siRNA concentrations) or free peptide at the range of 0.5-4 uM final concentrations were added. Cells were treated with complexes for 20 h. MTS was added according to the manufacturer's protocol. The absorbance of formazan product was measured at 490 nm with Tecan Sunrise microplate absorbance reader (Tecan Group Ltd, Switzerland) and percentage of viable cells was calculated using GraphPad Prism software 5.0 (Graphpad Software, CA, USA).

[1] = test system: subcutaneous U87MG tumor xenograft; test: Biodistribution of CPP/Cy5-siRNA nanoparticles, U87 tumor; type: in vivo, mouse; conditions: peak at 3 h
Method: Human tumor xenografts (subcutaneous U87MG and HT-1080) were induced in mice (Hsd: Athymic Nude-Foxn1nu female, 2.5 month old, Harlan, UK). The xenografting was performed by implanting the cell suspension (1×10^6 cells in 100 ul volume of ice-cold DMEM without any supplements) subcutaneously to the flank.
At the appearance of tumor size of approx. 100 mm^3, mice were injected i.v. (via tail vein) with the CPP/siRNA complexes. Each animal received a single 200 ul i.v. injection of 20 ug Cy5-siRNA, formulated with CPPs at MR20 or MR40. As a control, 20 μg of un-complexed Cy5-labeled siRNA was administered. The biodistribution of Cy5-siRNA and CPP/Cy5-siRNA complexes was evaluated at different time points −0.5 h up to 6 h. For that, mice (n=2 in each treatment group) were imaged in vivo using IVIS Lumina II (CaliperLS, USA). Cy-5 fluorescence intensity values were acquired from the tumor region.

[2] = test system: murine blood coagulation factor VII mRNA; test: Gene downregulation in vivo (siFVII, mouse liver, qRT-PCR)
Method: For the gene downregulation studies male Balb/c, 2-4 month-old mice were used, with 2-5 mice per group. The CPP/siRNA complexes were formed at MR30 and for each mouse 1.6 mg/kg siRNA dose was used. Particle formulations were administered intravenously via tail vein injection, at 1.6 mg/kg siRNA dose. 48 h post treatment, liver tissues were harvested and snap-frozen for analyses. The tissues were homogenized using Precellys®24-Dual homogenization system (Bertin Technologies, France) with TRIzol reagent (Thermo Fisher Scientific). RNA was extracted according to TRIzol manufacturers protocol with slight modifications. RNA quality and concentration was assessed on 1.8% agarose gel and NanoDrop2000. From RNA complementary DNA was synthesized using SuperScript IV Reverse Transcriptase (Thermo Fisher Scientific) according to manufacturer's protocol. The synthesized cDNA was used for qPCR accompanied with 5× HOT FIREPol EvaGreen qPCR Supermix (Solis Biodyne, Estonia) according to manufacturer's protocol. The obtained data was analyzed using 2-ΔΔCT method and normalized to untreated mouse group (100%). siRNA against blood coagulation factor VII (siFVII) sense 5′-gga (2′F-U) (2′F-C) a (2′F-U) (2′F-C) (2′F-U) (2′F-C) aag (2′F-U) (2′F-C) (2′F-U) (2′F-U) a (2′F-C) T*T-3″ and antisense 5′-g (2′F-U) aaga (2′F-C) (2′F-U) (2′F-U) gaga (2′F-U) ga (2′F-U) (2′F-C) (2′F-C) T*T 3′. Primers for PCR (Mus blood coagulation factor VII) forward […] (SEQ ID NO:11), reverse: […] (SEQ ID NO:12) and (Mus Actin beta) forward: […] (SEQ ID NO: 13) and reverse: […] (SEQ ID NO:14). The siRNA and primers were synthesized by the same manufacturer (Metabion, Germany). Data was collected with ViiA 7 RT_PCR system and analysis based on […] and normalized to results from untreated mice.
As a control hydrodynamic injection of 600 ul of siRNA was used and untreated mice were included. All animal experiments and procedures were approved by the Estonian Laboratory Animal Ethics Committee (approvals no 81, dated Apr. 4, 2016, and 69 and 70, dated Feb. 9, 2011).

SMILES	concentration at which free peptide is toxic to cells (MTS) (U87 cells)	peak accumulation in U87 tumor relative to naked Cy5-siRNA [1]	RNA levels preserved compared to untreated mice ([2]; 1.6 mg/kg siFVII, 48 h, liver)	downregulation compared to siRNA treated group ([2]; 1.6 mg/kg siRNA)	downregulation compared to free siRNA and In vivo JetPEI at N/P6 ([2]; same 1.6 mg/kg dose)	downregulation of the target (FVII) in mouse liver ([2]; single i.v. injection, 1.6 mg/kg siRNA, MR30, 48 h, vs untreated mice)
CCCCCCCCCCCCCCCCCC(=O)N[C@@H](Cc1c[nH]cn1)C(=O)N[C@@H](Cc1c[nH]cn1)C(=O)N[C@@H](Cc1ccc(O)cc1)C(=O)N[C@@H](Cc1c[nH]cn1)C(=O)N[C@@H](Cc1c[nH]cn1)C(=O)NCC(=O)NCCC[C@H](N)C(=O)N[C@H](C(=O)N[C@@H](CC(C)C)C(=O)N[C@@H](CC(C)C)C(=O)N[C@@H](CCCCN)C(=O)N[C@@H](C)C(=O)N[C@@H](CC(C)C)C(=O)N[C@@H](CCCCN)C(=O)N[C@@H](C)C(=O)N[C@@H](CC(C)C)C(=O)N[C@@H](C)C(=O)N[C@@H](CCCCN)C(=O)N[C@@H](C)C(=O)N[C@H](C(=O)N[C@@H](CC(C)C)C(N)=O)[C@@H](C)CC)[C@@H](C)CC [NF71] (I: H-[Orn]ILLKALKALAKAIL-NH2 / II: Stearoyl-HHYHHG; amide I:1-II:C)	≥ 5 µM	27 fold				
CCCCCCCCCCCCCCCCCCCC(=O)N[C@@H](Cc1c[nH]cn1)C(=O)N[C@@H](Cc1c[nH]cn1)C(=O)N[C@@H](Cc1c[nH]cn1)C(=O)N[C@@H](Cc1c[nH]cn1)C(=O)N[C@@H](Cc1ccc(O)cc1)C(=O)N[C@@H](Cc1c[nH]cn1)C(=O)N[C@@H](Cc1c[nH]cn1)C(=O)NCC(=O)NCCC[C@H](N)C(=O)N[C@H](C(=O)N[C@@H](CC(C)C)C(=O)N[C@@H](CC(C)C)C(=O)N[C@@H](CCCCN)C(=O)N[C@@H](C)C(=O)N[C@@H](CC(C)C)C(=O)N[C@@H](CCCCN)C(=O)N[C@@H](C)C(=O)N[C@@H](CC(C)C)C(=O)N[C@@H](C)C(=O)N[C@@H](CCCCN)C(=O)N[C@@H](C)C(=O)N[C@H](C(=O)N[C@@H](CC(C)C)C(N)=O)[C@@H](C)CC)[C@@H](C)CC [NF70] (I: H-[Orn]ILLKALKALAKAIL-NH2 / II: Arachidoyl-HHHHYHHG; amide I:1-II:C)			approximately 40%	30%	higher downregulation effect	~60%
